Patent US9421186B2, “Method for improving therapy for autoimmune diseases such as rheumatoid arthritis” (priority 2012, dated 2016)
Read-outs that look alike come from different tables or passages of the source.

Legend:
adjuvant arthritis [1] = test: Adjuvant-induced arthritis in rats, paw swelling of both hind legs, therapeutic dosing (Test Example 2); type: in vivo, Lewis male rat; conditions: oral once a day for 7 days from day 18, 25th day; for Swelling rate: average of both hind legs; for Inhibition rate: vs control swelling rate
Procedure: A suspension of dead Mycobacterium tuberculosis in liquid paraffin (0.6 mg/0.1 mL) was intradermally injected to the base of tail of each Lewis male rat to induce adjuvant arthritis. On the 18th day after the induction of arthritis, the paw volumes of both hind legs were measured. The rats were grouped so that the paw volumes of both hind legs averaged out per group. The test substances were separately suspended or dissolved in 0.5% aqueous methylcellulose solutions to prepare dosing solutions, which were orally administered once a day for 7 days from the grouping date. In the case of combined administration, both test substances were simultaneously administered through an oral route.
The dose of iguratimod was set to 1 mg/kg, while the dose of prednisolone was set to 5 mg/kg. Alternatively, 1 mg/kg iguratimod and 5 mg/kg prednisolone were orally administered in combination.
1 mL of 0.5% aqueous methylcellulose solution per 100 g of body weight was orally administered to a control group that received no test substance after the grouping.
On the day after the final administration (on the 25th day after the induction of arthritis), the paw volumes of both hind legs were measured for each group. Subsequently, the rats were killed by blood removal. Then, their thymus glands, spleens, and adrenal glands were extirpated, and the weights were measured to calculate the ratio of each organ weight to 100 g body weight.

adjuvant arthritis [2] = test: Adjuvant-induced arthritis in rats, paw swelling of left hind leg (Test Example 1); type: in vivo, Lewis male rat; conditions: oral once a day for 21 days; for Swelling rate: left hind leg, 21st day after arthritis induction; for Inhibition rate: vs control swelling rate, 21st day
Procedure: A suspension of dead Mycobacterium tuberculosis in liquid paraffin (0.6 mg/0.1 mL) was intradermally injected in the plantar region of left hind paw of each Lewis male rat to induce adjuvant arthritis. The paw volumes of both hind legs were measured using a plethysmometer on a daily basis from before to after the induction of arthritis. The test substances were separately suspended or dissolved in 0.5% aqueous methylcellulose solutions to prepare dosing solutions, which were orally administered once a day for 21 days from immediately after the adjuvant injection. In the case of combined administration, both test substances were simultaneously administered.
The dose of iguratimod was set to 3 mg/kg, while the dose of methotrexate was set to 0.1 mg/kg. Alternatively, 3 mg/kg iguratimod and 0.1 mg/kg methotrexate were administered in combination.
1 mL of 0.5% aqueous methylcellulose solution per 100 g of body weight was orally administered to an untreated normal group and a control group that received no test substance after the induction of arthritis.
On the day after the final administration (on the 21st day after the induction of arthritis), the paw volume of the left hind leg was measured for each group. Subsequently, peripheral blood was collected therefrom, and the reticulocyte count was measured.

HepG2 cells [3] = conditions: human, 24 h
Procedure: (§1) HepG2 cells floating in a Dulbecco's modified Eagle's medium (DMEM) containing 10% fetal bovine serum (FBS) were inoculated at a concentration of 3.5×10^4 cells/0.1 mL/well to a 96-well plate and cultured at 37° C. for approximately 24 hours in a 5% CO2 atmosphere. Then, the medium was replaced by DMEM containing iguratimod and methotrexate and containing 0.5% FBS, and the cells were further cultured therein for 24 hours. In this context, iguratimod was dissolved in a 1.12-fold molar quantity of 0.1 mol/L sodium hydroxide solution, diluted with distilled water, and then added to the culture solution. Methotrexate was dissolved in dimethyl sulfoxide (DMSO) and added to the culture solution. Test substance-free DMEM containing 0.25% DMSO and 0.5% FBS was used in a control group.
(§2) After the completion of culture, each culture supernatant was separated, and the activity of lactate dehydrogenase (LDH) released outside the cells was determined using Cytotoxicity Detection Kit (LDH) (Roche Applied Science). In order to determine LDH activity in the whole cells, 0.1 mL of DMEM containing 2% Triton X-100 and 0.5% FBS was then added to each well after the culture supernatant separation to prepare a cell lysate. The LDH activity was determined in the same way as above.
(§3) The rate of LDH release (%) was calculated according to the formula shown below and indicated by the average value of each group. Its ratio with respect to the control group was also determined. Rate of LDH release (%)=Activity in the culture supernatant/(Activity in the culture supernatant+Activity in the cell lysate)×100

HepG2 cells [4] = test: Cellular damage of HepG2 cells, LDH release (Test Example 3); conditions: iguratimod 0, HepG2, 24 hours; for Rate of LDH release: control 14.2
Procedure: as §1, §2, §3

C[C@]12C=CC(=O)C=C1CC[C@@H]1[C@@H]2[C@@H](O)C[C@@]2(C)[C@H]1CC[C@]2(O)C(=O)CO [Prednisolone, prednisolone]
Swelling rate (adjuvant arthritis [1]; prednisolone 5 mg/kg): 66% | Inhibition rate (adjuvant arthritis [1]; prednisolone 5 mg/kg): 37%

CS(=O)(=O)Nc1cc2occ(NC=O)c(=O)c2cc1Oc1ccccc1 [Iguratimod, N-[7-[(methanesulfonyl)amino]-4-oxo-6-phenoxy-4H-1-benzopyran-3-yl]formamide]
Swelling rate (adjuvant arthritis [2]; iguratimod 3 mg/kg): 93% | Inhibition rate (adjuvant arthritis [2]; iguratimod 3 mg/kg): 40% | Swelling rate (adjuvant arthritis [1]; iguratimod 1 mg/kg): 76% | Inhibition rate (adjuvant arthritis [1]; iguratimod 1 mg/kg): 28% | Rate of LDH release (HepG2 cells [3]; 3 μg/mL): 15.9% | Rate of LDH release, ratio to control group (HepG2 cells [3]; 3 μg/mL): 112% | Rate of LDH release (HepG2 cells [3]; 30 μg/mL): 17.0% | Rate of LDH release, ratio to control group (HepG2 cells [3]; 30 μg/mL): 120%

CN(Cc1cnc2nc(N)nc(N)c2n1)c1ccc(C(=O)N[C@@H](CCC(=O)O)C(=O)O)cc1 [Methotrexate, methotrexate]
Swelling rate (adjuvant arthritis [2]; methotrexate 0.1 mg/kg): 114% | Inhibition rate (adjuvant arthritis [2]; methotrexate 0.1 mg/kg): 26% | Rate of LDH release, ratio to control group (HepG2 cells [4]; methotrexate 1 μg/mL): 172% | Rate of LDH release (HepG2 cells [4]; methotrexate 1 μg/mL): 24.4% | Rate of LDH release, ratio to control group (HepG2 cells [4]; methotrexate 10 μg/mL): 189% | Rate of LDH release (HepG2 cells [4]; methotrexate 10 μg/mL): 26.8%
